The source of these data is patent US8658670B2 (Crestone, Inc., priority 2006, dated 2014).

Assay [1] concerns C. difficile strain ATCC43255 toxin A. Briefly: Toxin A production in high cell density stationary phase cultures (ELIFA). The assay is classed as cell-based. The conditions noted are these: 4 day old stationary phase cultures. The protocol:
C. difficile strain ATCC43255 was grown and maintained anaerobically on CDC anaerobe agar (Remel, Lenexa, Kans.). To test the effect of antibacterial agents on growth, cells were grown anaerobically for 40 h at 35° C. in 96-well brain heart infusion (BHI) broth cultures, with an initial inoculum of 10^6 CFU/mL. To test the effect of antibacterial agents on toxin production at high C. difficile cell densities, the cells were grown anaerobically for 24 h at 35° C. in 96-well brain heart infusion (BHI) broth cultures. Spent medium was then replaced with fresh broth containing MetRS inhibitors and control agents at a concentration range of 0.015-16 μg/mL. After 4 days, growth and cell viability were monitored by optical density measurements at 595 nm and by culture on CDC anaerobe agar, respectively. Culture supernatants were collected, and toxin A was detected by ELIFA (enzyme-linked immuno-flow assay) using an anti toxin A monoclonal antibody (Novus Biologicals, Centennial, Colo.).

The subject of assay [2] is C. difficile. Description: C. difficile-infected hamster survival study. The assay is classed as in vivo, hamsters. Here is the method: Animal studies were performed to determine the efficacy of MetRS inhibitors for treating C. difficile-infections. The MetRS inhibitors tested were two compounds of formula (II), 5-[3-((R)-6,8-Dibromo-chroman-4-ylamino)-propylamino]-4H-thieno[3,2-b]pyridine-7-one (both racemic mixture and the R enantiomer) and 5-[3-((R)-8-Bromo-6-chloro-chroman-4-ylamino)-propylamino]-4H-thieno[3,2-b]pyridin-7-one. Also tested was a compound of formula (IV), 2-(3-{3,5-Dibromo-2-[2-(4-methyl-thiazol-5-yl)-ethoxy]-benzylamino}-propylamino)-1H-quinolin-4-one.
Results were compared to C. difficile-infected hamsters treated with the conventional antibiotic, vancomycin. Infected hamsters were treated with either a solution or suspension of a MetRS inhibitor at 5 to 50 mg/kg or vancomycin at 2.5, 5 or 25 mg/kg. There were eight hamsters per group with the final endpoint of the experiment being survival. Expired hamsters were examined for GI condition.

The subject of assay [3] is clinical isolates of C. difficile. Briefly: Sporulation of C. difficile clinical isolates. The assay is classed as cell-based.

A value given as a limit tells only on which side of the number the result lay.

For the molecule `Cl.Cl.O=c1cc(NCCCN[C@@H]2CCOc3c(Br)cc(Br)cc32)[nH]c2ccsc12` [R-(+)-5-[3-(6,8-Dibromo-chroman-4-ylamino)-propylamino]-4H-thieno[3,2-b]pyridin-7-one di-hydrochloride], the “concentration inhibiting toxin production” value in assay [1] turned out to be 0.25 µg/mL.

Take `CN[C@H](CC(C)C)C(=O)N[C@H]1C(=O)N[C@@H](CC(N)=O)C(=O)N[C@H]2C(=O)N[C@H]3C(=O)N[C@H](C(=O)N[C@H](C(=O)O)c4cc(O)cc(O)c4-c4cc3ccc4O)[C@H](O)c3ccc(c(Cl)c3)Oc3cc2cc(c3O[C@@H]2O[C@H](CO)[C@@H](O)[C@H](O)[C@H]2O[C@H]2C[C@](C)(N)[C@H](O)[C@H](C)O2)Oc2ccc(cc2Cl)[C@H]1O` [vancomycin, reference compound]: the survival in assay [2] (Day 28, vancomycin treatment (2.5, 5 or 25 mg/kg)) was 0-10%.

Consider `Cc1ncsc1CCOc1c(Br)cc(Br)cc1CNCCCNc1cc(=O)c2sccc2[nH]1`, for which the “concentration inhibiting toxin production” value in assay [1] was found to be 0.25 µg/mL.

With `Cl.Cl.Cl.O=c1cc(NCCCNC2CCNc3c(Br)cc(Br)cc32)[nH]c2ccsc12` (stereo not drawn) [5-[3-(6,8-Dibromo-1,2,3,4-tetrahydro-quinolin-4-ylamino)-propylamino]-4H-thieno[3,2-b]pyridin-7-one tri-hydrochloride], in assay [1], the “concentration inhibiting toxin production” value turned out to be 0.25 µg/mL.

As for `O=c1cc(NCCCNC2CCOc3c(Br)cc(Br)cc32)[nH]c2ccsc12` (stereo not drawn) [5-[3-(6,8-Dibromo-chroman-4-ylamino)-propylamino]-4H-thieno[3,2-b]pyridin-7-one], the “concentration inhibiting toxin production” value in assay [1] stood at 0.25 µg/mL.

For the molecule `Cc1ncc([N+](=O)[O-])n1CCO` [metronidazole, reference compound], the “spores (ratio of spores to total cells)” value in assay [3] (subMIC concentrations, all tested strains) is on record as “up to 100%”.

With `O=c1cc(NCCCN[C@@H]2CCOc3c(Br)cc(Br)cc32)[nH]c2ccsc12` [5-[3-((R)-6,8-Dibromo-chroman-4-ylamino)-propylamino]-4H-thieno[3,2-b]pyridine-7-one], the “spores (ratio of spores to total cells)” value in assay [3] (0.25×MIC, 96 hours, all strains) is reported as below 2%; in assay [3] (0.5×MIC, 96 hours, all strains) it was below 1%. In addition, the “efficacy ranking among tested MetRS inhibitors” value in assay [2] (infected hamsters, survival) is given as “best efficacy”.
